In patent publication US20230183818A1, “ANTIBIOTIC SUSCEPTIBILITY OF MICROORGANISMS AND RELATED MARKERS, COMPOSITIONS, METHODS AND SYSTEMS” (priority 2018, published 2023):
Values after ≈ are worked out from the molar mass of the structure shown.

Test system: Neisseria gonorrhoeae
Conditions: resistant isolates, all time points (0-15 min)
Protocol: Cultures were diluted (5X) into HFB. Each isolate culture was split into “treated” and “control” tubes.
During incubation, samples were collected for RNA sequencing at 5, 10, and 15 min (300 µL aliquot of sample was mixed into 600 µL of Qiagen RNA Protect Reagent (Qiagen, Hilden, Germany) for immediate RNA stabilization).
RNA was extracted using the Enzymatic Lysis of Bacteria protocol of the Qiagen RNeasy Mini Kit and processed according to the manufacturer’s protocol. DNA digestion was performed during extraction using the Qiagen RNase-Free DNase Set.
The quality of extracted RNA was measured using an Agilent 2200 TapeStation (Agilent, Santa Clara, CA, USA). Extracted RNA samples were prepared for sequencing using the NEBNext Ultra RNA Library Prep Kit for Illumina (New England Biolabs, Ipswitch, MA, USA) and the NEBNExt Multiplex Oligos for Illumina. […] Raw reads from the sequenced libraries were subjected to quality control to filter out low-quality reads and trim the adaptor sequences using Trimmomatic (version 0.35).
The reads were aligned to the FA 1090 strain of N. gonorrhoeae (NCBI Reference Sequence: NC_002946.2) using Bowtie2 (version 2.2.5) and quantified using the Subread package (version 1.5.0-p1). A pseudocount of 1 was added to the gene quantification; gene expression was defined in transcripts per million (TPM). […]

| Compound | transcriptional response in resistant isolates |
| --- | --- |
| O=C(O)c1cn(C2CC2)c2cc(N3CCNCC3)c(F)cc2c1=O [Ciprofloxacin, ciprofloxacin] | did not significantly respond |

Same assay, conditions: susceptible isolates, 15 min exposure

| Compound | expression response of the six candidate markers (porB, rpmB, tig, yebC, pilB, cysK) |
| --- | --- |
| O=C(O)c1cn(C2CC2)c2cc(N3CCNCC3)c(F)cc2c1=O [Ciprofloxacin, ciprofloxacin] | downregulation |

Test system: Neisseria gonorrhoeae
Conditions: Neisseria gonorrhoeae; cited from earlier work

| Compound | resistant MIC breakpoint [microgram/mL] | susceptible MIC breakpoint [microgram/mL] |
| --- | --- | --- |
| O=C(O)c1cn(C2CC2)c2cc(N3CCNCC3)c(F)cc2c1=O [Ciprofloxacin, ciprofloxacin] | 1.00 | 0.06 |

Same assay, conditions: cited from earlier work

| Compound | MIC Breakpoint, S (susceptible) [µg/mL] | MIC Breakpoint, I (intermediate) [µg/mL] | MIC Breakpoint, R (resistant) [µg/mL] |
| --- | --- | --- | --- |
| CC(C)(O/N=C(\C(=O)N[C@@H]1C(=O)N2C(C(=O)[O-])=C(C[n+]3ccccc3)CS[C@H]12)c1csc(N)n1)C(=O)O [Ceftazidime] | ≤ 0.5 |  |  |
| CO/N=C(\C(=O)N[C@@H]1C(=O)N2C(C(=O)O)=C(CSc3nc(=O)c(=O)[nH]n3C)CS[C@H]12)c1csc(N)n1 [Ceftriaxone] | ≤ 0.25 |  |  |
| CO[C@@]1(NC(=O)Cc2cccs2)C(=O)N2C(C(=O)O)=C(COC(N)=O)CS[C@@H]21 [Cefoxitin] | ≤2 | 4 (≈ 9.36 µM) | ≥8 |
| CO/N=C(\C(=O)N[C@@H]1C(=O)N2C(C(=O)O)=C(COC(C)=O)CS[C@H]12)c1csc(N)n1 [Cefotaxime] | ≤ 0.5 |  |  |
| CN[C@@H]1[C@H](O)[C@H](NC)[C@H]2O[C@@]3(O)C(=O)C[C@@H](C)O[C@H]3O[C@@H]2[C@H]1O [Spectinomycin] | ≤ 32 | 64 (≈ 193 µM) | ≥ 128 |
| CN1CCN(c2c(F)cc3c(=O)c(C(=O)O)cn(CCF)c3c2F)CC1 [Fleroxacin] | ≤ 0.25 | 0.5 (≈ 1.35 µM) | ≥1 |
| CO[C@@]1(NC(=O)CSCC#N)C(=O)N2C(C(=O)O)=C(CSc3nnnn3C)CS[C@@H]21 [Cefmetazole] | ≤2 | 4 (≈ 8.48 µM) | ≥8 |
| CO/N=C(\C(=O)N[C@@H]1C(=O)N2C(C(=O)O)=C(C)CS[C@H]12)c1csc(N)n1 [Cefetamet] | ≤ 0.5 |  |  |
| CO/N=C(\C(=O)N[C@@H]1C(=O)N2C(C(=O)O)=CCS[C@H]12)c1csc(N)n1 [Ceftizoxime] | ≤ 0.5 |  |  |
| Penicillin | ≤ 0.06 | 0.12 to 1 | ≥2 |
| CCn1cc(C(=O)O)c(=O)c2cc(F)c(N3CCNCC3)nc21 [Enoxacin] | ≤ 0.5 | 1 (≈ 3.12 µM) | ≥2 |
| CCn1cc(C(=O)O)c(=O)c2cc(F)c(N3CCNC(C)C3)c(F)c21 (stereo not shown) [Lomefloxacin] | ≤ 0.12 | 0.25 to 1 | ≥2 |
| CO/N=C(\C(=O)N[C@@H]1C(=O)N2C(C(=O)O)=C(COC(N)=O)CS[C@H]12)c1ccco1 [Cefuroxime] | ≤1 | 2 (≈ 4.71 µM) | ≥4 |
| CO/N=C(\C(=O)N[C@@H]1C(=O)N2C(C(=O)[O-])=C(C[N+]3(C)CCCC3)CS[C@H]12)c1csc(N)n1 [Cefepime] | ≤ 0.5 |  |  |
| O=C(O)c1cn(C2CC2)c2cc(N3CCNCC3)c(F)cc2c1=O [Ciprofloxacin, ciprofloxacin] | ≤ 0.06 | 0.12 to 0.5 | ≥1 |
